Results from patent US9315491B2 (DEVELOPMENT CENTER FOR BIOTECHNOLOGY, priority 2009, dated 2016).

Molecular target: PI3K (p110α/p85α) (Homo sapiens (Human), UniProt P42336)
Assay: PI3K HTRF enzyme assay, p110α/p85α
Assay type: biochemical
Details: read-out: % inhibition @ 500 nM p110α; compound at 500 nM, 10 μM ATP
Experimental: Recombinant PI3K (p110α/p85α) and PI3K (p110β/p85α) were from Millipore. […] Briefly, the compounds of interest dissolved in 100% DMSO were dispensed in all wells, following which the mixture of PIP2 and enzyme was added. PI3K (p110α/p85α) and PI3K (p110β/p85α) enzyme reactions were initiated in the presence of 10 μM and 100 μM ATP, respectively, and incubated for 30 min at room temperature. STOP solution prepared 2 hours prior to use was added to stop reactions, and mixed well. Detection solution prepared 2 hours prior to use was added, and incubated at room temperature for 17 hours in the dark. […] HTRF ration was calculated as follows: […]

Chain of PI3K (p110α/p85α) (P42336 whole entry, species assumed): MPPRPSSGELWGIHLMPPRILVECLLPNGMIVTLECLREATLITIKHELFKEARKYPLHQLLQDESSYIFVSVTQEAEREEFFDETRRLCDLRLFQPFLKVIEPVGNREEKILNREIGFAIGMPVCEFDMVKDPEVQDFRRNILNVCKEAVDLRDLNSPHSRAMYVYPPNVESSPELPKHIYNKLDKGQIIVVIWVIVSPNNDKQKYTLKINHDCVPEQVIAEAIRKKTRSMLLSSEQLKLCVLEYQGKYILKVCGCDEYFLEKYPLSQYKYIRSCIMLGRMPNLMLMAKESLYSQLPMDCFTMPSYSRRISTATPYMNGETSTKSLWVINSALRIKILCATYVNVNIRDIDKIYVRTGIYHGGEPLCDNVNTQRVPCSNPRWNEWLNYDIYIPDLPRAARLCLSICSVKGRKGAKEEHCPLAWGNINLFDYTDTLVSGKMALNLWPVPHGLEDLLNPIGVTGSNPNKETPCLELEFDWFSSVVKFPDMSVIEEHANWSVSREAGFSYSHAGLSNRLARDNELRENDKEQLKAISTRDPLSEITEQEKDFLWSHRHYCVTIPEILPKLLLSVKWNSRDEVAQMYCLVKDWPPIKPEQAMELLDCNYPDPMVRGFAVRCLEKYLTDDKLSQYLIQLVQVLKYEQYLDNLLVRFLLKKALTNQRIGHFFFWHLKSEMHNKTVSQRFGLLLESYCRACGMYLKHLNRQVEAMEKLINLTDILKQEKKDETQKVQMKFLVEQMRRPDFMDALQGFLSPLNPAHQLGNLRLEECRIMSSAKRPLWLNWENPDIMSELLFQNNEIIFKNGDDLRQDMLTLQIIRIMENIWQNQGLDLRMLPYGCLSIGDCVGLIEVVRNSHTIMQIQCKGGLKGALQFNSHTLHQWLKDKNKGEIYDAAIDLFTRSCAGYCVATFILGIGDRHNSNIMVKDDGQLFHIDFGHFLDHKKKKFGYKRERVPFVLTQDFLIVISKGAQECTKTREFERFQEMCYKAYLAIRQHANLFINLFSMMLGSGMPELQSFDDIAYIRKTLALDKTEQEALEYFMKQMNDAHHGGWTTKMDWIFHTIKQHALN
Chain of PI3K (p110α/p85α) (P27986 whole entry partner, species assumed): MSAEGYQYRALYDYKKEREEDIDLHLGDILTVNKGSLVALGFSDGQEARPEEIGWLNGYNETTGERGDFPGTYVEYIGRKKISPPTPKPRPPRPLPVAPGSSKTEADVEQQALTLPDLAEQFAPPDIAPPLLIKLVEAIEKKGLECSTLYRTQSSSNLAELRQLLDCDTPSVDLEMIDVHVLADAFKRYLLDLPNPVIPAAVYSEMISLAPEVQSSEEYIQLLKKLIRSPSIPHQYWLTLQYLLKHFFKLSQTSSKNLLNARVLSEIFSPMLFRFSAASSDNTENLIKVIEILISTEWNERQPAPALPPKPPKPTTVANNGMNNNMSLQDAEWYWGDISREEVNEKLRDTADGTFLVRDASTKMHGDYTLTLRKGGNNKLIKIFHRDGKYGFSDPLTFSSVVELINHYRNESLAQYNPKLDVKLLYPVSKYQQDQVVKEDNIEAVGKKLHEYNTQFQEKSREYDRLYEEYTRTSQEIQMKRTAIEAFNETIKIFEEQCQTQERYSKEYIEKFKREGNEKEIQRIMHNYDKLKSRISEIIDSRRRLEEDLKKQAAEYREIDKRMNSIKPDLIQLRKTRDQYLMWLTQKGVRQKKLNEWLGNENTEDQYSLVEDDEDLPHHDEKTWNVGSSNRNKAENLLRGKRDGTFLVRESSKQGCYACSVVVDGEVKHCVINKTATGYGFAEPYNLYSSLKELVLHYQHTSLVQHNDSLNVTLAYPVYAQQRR

Row | inhibition at 0.5 µM [%] | Structure (SMILES)
1 | 44.2 | CCOC(=O)c1nc(-c2ccc(NC(=O)Nc3ccc(N4CCOCC4=O)cc3)cc2F)nc(N2CCOCC2)c1OCC [MTR-0322, 5-Ethoxy-2-(2-fluoro-4-{3-[4-(3-oxo-morpholin-4-yl)-phenyl]-ureido}-phenyl)-6-morpholin-4-yl-pyrimidine-4-carboxylic acid ethyl ester]
2 | 90.8 | CCOc1cnc(-c2ccc(NC(=O)Nc3ccc(C(N)=O)cc3)cc2)nc1N1CCOCC1 [MTR-0323, 4-{3-[4-(5-Ethoxy-4-morpholin-4-yl-pyrimidin-2-yl)-phenyl]-ureido}-benzamide]
3 | 91.5 | CCOc1cnc(-c2ccc(NC(=O)Nc3ccc(N4CCOCC4=O)cc3)cc2)nc1N1CCOCC1 [MTR-0325, 1-[4-(5-Ethoxy-4-morpholin-4-yl-pyrimidin-2-yl)-phenyl]-3-[4-(3-oxo-morpholin-4-yl)-phenyl]-urea]
4 | 90.7 | CCOc1cnc(-c2ccc(NC(=O)Nc3ccc(S(N)(=O)=O)cc3)cc2)nc1N1CCOCC1 [MTR-0326, 4-{3-[4-(5-Ethoxy-4-morpholin-4-yl-pyrimidin-2-yl)-phenyl]-ureido}-benzenesulfonamide]
5 | 80.6 | CSc1c(Cl)nc(-c2ccc(NC(=O)Nc3ccc(NS(C)(=O)=O)cc3)cc2)nc1N1CCOCC1 [MTR-0347, N-(4-{3-[4-(4-Chloro-5-methylsulfanyl-6-morpholin-4-yl-pyrimidin-2-yl)-phenyl]-ureido}-phenyl)-methanesulfonamide]
6 | 52.3 | COc1cnc(-c2ccc(NC(=O)Nc3ccc(C(=O)O)cc3)cc2)nc1N1CCOCC1 [MTR-0351, 4-{3-[4-(5-Methoxy-4-morpholin-4-yl-pyrimidin-2-yl)-phenyl]-ureido}-benzoic acid]
7 | 101 | CCOc1cnc(-c2ccc(NC(=O)Nc3ccc(NC(C)=O)cc3)cc2)nc1N1CCOCC1 [MTR-0368, N-(4-{3-[4-(5-Ethoxy-4-morpholin-4-yl-pyrimidin-2-yl)-phenyl]-ureido}-phenyl)-acetamide]
8 | 61.8 | CCOC(=O)c1nc(-c2ccc(NC(=O)Nc3ccc(NC(C)=O)cc3)cc2)nc(N2CCOCC2)c1OCC [MTR-0370, 2-{4-[3-(4-Acetylamino-phenyl)-ureido]-phenyl}-5-ethoxy-6-morpholin-4-yl-pyrimidine-4-carboxylic acid ethyl ester]
9 | 95.5 | CSc1c(Cl)nc(-c2ccc(NC(=O)Nc3ccc4oc(=O)[nH]c4c3)cc2)nc1N1CCOCC1 [MTR-0372, 1-[4-(4-Chloro-5-methylsulfanyl-6-morpholin-4-yl-pyrimidin-2-yl)-phenyl]-3-(2-oxo-2,3-dihydro-benzooxazol-5-yl)-urea]
10 | 79.4 | CSc1cnc(-c2ccc(NC(=O)Nc3ccc(NS(C)(=O)=O)cc3)cc2)nc1N1CCOCC1 [MTR-0376, N-(4-{3-[4-(5-Methylsulfanyl-4-morpholin-4-yl-pyrimidin-2-yl)-phenyl]-ureido}-phenyl)-methanesulfonamide]
11 | 84.5 | CSc1cnc(-c2ccc(NC(=O)Nc3ccc(N4CCOCC4=O)cc3)cc2F)nc1N1CCOCC1 [MTR-0378, 1-[3-Fluoro-4-(5-methylsulfanyl-4-morpholin-4-yl-pyrimidin-2-yl)-phenyl]-3-[4-(3-oxo-morpholin-4-yl)-phenyl]-urea]
12 | 101 | CSc1cnc(-c2ccc(NC(=O)Nc3ccc(NC(C)=O)cc3)cc2)nc1N1CCOCC1 [MTR-0380, N-(4-{3-[4-(5-Methylsulfanyl-4-morpholin-4-yl-pyrimidin-2-yl)-phenyl]-ureido}-phenyl)-acetamide]
13 | 95.9 | COc1cnc(-c2ccc(NC(=O)Nc3ccc(C(=O)N4CCOCC4)cc3)cc2)nc1N1CCOCC1 [MTR-0382, 1-[4-(5-Methoxy-4-morpholin-4-yl-pyrimidin-2-yl)-phenyl]-3-[4-(morpholine-4-carbonyl)-phenyl]urea]
14 | 64 | COc1cnc(-c2ccc(NC(=O)Nc3ccc(C(N)=O)cc3)c(F)c2)nc1N1CCOCC1 [MTR-0385, 4-{3-[2-Fluoro-4-(5-methoxy-4-morpholin-4-yl-pyrimidin-2-yl)-phenyl]-ureido}-benzamide]
